According to the NIST ThermoML archive (doi:10.1016/j.jct.2008.08.013):
Numbers after ± are expanded uncertainties.

Conditions: 101.33 kPa, Liquid, Vibrating tube method

SMILES	mass density (288.15 K)	mass density (293.15 K)	mass density (298.15 K)	mass density (303.15 K)
Nc1ccccc1 [aniline]	1025.93 ± 0.1 kg/m3	1021.04 ± 0.09 kg/m3	1017.1 ± 0.09 kg/m3	1012.84 ± 0.09 kg/m3
ClCCl [dichloromethane]	1334.81 ± 0.18 kg/m3	1325.67 ± 0.18 kg/m3	1316.58 ± 0.17 kg/m3	1307.9 ± 0.17 kg/m3
O=[N+]([O-])c1ccccc1 [nitrobenzene]	1211.53 ± 0.13 kg/m3	1202.61 ± 0.13 kg/m3	1198.01 ± 0.12 kg/m3	1193.5 ± 0.12 kg/m3
